The experiment has as its system HIF-1-mediated transcription. Put plainly: HIF-1-mediated transcription under hypoxia, LN229-HRE-Lux luciferase reporter assay. The experiment is classed as cell-based, human. As to conditions: Homo sapiens, 24 h, LN229-HRE-Lux cells, hypoxia (1% O2), 24 h, read-out: IC50. Here is the method: The synthesized analogues were evaluated for their potential to inhibit HIF-1-mediated transcription under hypoxia (1% O2) using a human glioma cell line LN229-HRE-Lux, which stably expresses a hypoxia-responsive luciferase reporter gene (Table 1-9). […] The compounds were tested in single (n=1) or multiple (n>1) independent experiments each carried out in quadruplicate.
LN229-HRE-luciferase human glioblastoma cells were used to perform the assay. […] 48-well plates were seeded with 3.10^4 cells per well and incubated under normoxic conditions for 24 h. Cells were then pre-treated with different concentrations of KCN-1 or its analogues for 1 h and then transferred to hypoxic conditions. After 24 h, media was aspirated, cells were lysed and reporter activity was measured in the lysate using Luciferase Assay System (Promega, Madison, Wis.) with 20/20^n Luminometer (Promega).
A general note: Reporter assays use an easily measured gene product as a stand-in for the process of interest.

pIC50: −log10 of the molar value. Like-named read-outs stand apart in the source and are kept apart here.

Regarding `COc1ccc(NCc2ccc3c(c2)C=CC(C)(C)O3)cc1OC` [Compound 2a, (3,4-Dimethoxy-phenyl)-(2,2-dimethyl-2H-chromen-6-ylmethyl)-amine], where the note is “Table 1”, the pIC50 was 5.52.
Consider `Cc1ccc(NCc2ccc3c(c2)C=CC(C)(C)O3)c(C)c1` [Compound 2c, (2,2-Dimethyl-2H-chromen-6-ylmethyl)-(2,4-dimethyl-phenyl)-amine], for which the pIC50 (Table 1) was below 4.60.
For the compound `CC1(C)C=Cc2cc(CNc3ccc(C(=O)O)cc3)ccc2O1` [Compound 2d, 4-[(2,2-Dimethyl-2H-chromen-6-ylmethyl)-amino]-benzoic acid], the pIC50 (Table 1) was below 4.60.
As to `CC1(C)C=Cc2cc(CNc3ccccc3Br)ccc2O1` [Compound 2e, (2-Bromo-phenyl)-(2,2-dimethyl-2H-chromen-6-ylmethyl)-amine], the pIC50 (Table 1) was below 4.60.
Take `CC1(C)C=Cc2cc(CNc3ccccc3F)ccc2O1` [Compound 2f, (2,2-Dimethyl-2H-chromen-6-ylmethyl)-(2-fluoro-phenyl)-amine]: the pIC50 (Table 1) was below 4.60.
Same read-out and setting: in the case of `COc1ccc(N(C)Cc2ccc3c(c2)C=CC(C)(C)O3)cc1OC` [Compound 3a, (3,4-Dimethoxy-phenyl)-(2,2-dimethyl-2H-chromen-6-ylmethyl)-methylamine] it was 5.30; in that of `CN(Cc1ccc2c(c1)C=CC(C)(C)O2)c1ccccn1` [Compound 3b, (2,2-Dimethyl-2H-chromen-6-ylmethyl)-methyl-pyridin-2-yl-amine], 5.08.
Regarding `Cc1ccc(N(C)Cc2ccc3c(c2)C=CC(C)(C)O3)c(C)c1` [Compound 3c, (2,2-Dimethyl-2H-chromen-6-ylmethyl)-(2,4-dimethyl-phenyl)-methyl-amine], the pIC50 is 5.59. Further, the pIC50 (Table 1) is 5.59.
For `COc1ccc(S(=O)(=O)N(Cc2ccc3c(c2)C=CC(C)(C)O3)C(C)C)cc1OC` [Compound 5a, N-(2,2-Dimethyl-2H-chromen-6-ylmethyl)-N-isopropyl-3,4-dimethoxy-benzenesulfonamide], the pIC50 (Table 2) is 5.51.
For the compound `C#CCN(Cc1ccc2c(c1)C=CC(C)(C)O2)S(=O)(=O)c1ccc(OC)c(OC)c1` [Compound 5b, N-(2,2-Dimethyl-2H-chromen-6-ylmethyl)-3,4-dimethoxy-N-prop-2-ynyl-benzenesulfonamide], the pIC50 is 5.89. For the setting “Table 2”, the pIC50 is 5.89.
`CCCCN(Cc1ccc2c(c1)C=CC(C)(C)O2)S(=O)(=O)c1ccc(OC)c(OC)c1` [Compound 5c, N-Butyl-N-(2,2-dimethyl-2H-chromen-6-ylmethyl)-3,4-dimethoxy-benzenesulfonamide]: the pIC50 is 5.48. Under “Table 2”, the pIC50 is 5.48.
On to `COc1ccc(S(=O)(=O)N(Cc2ccc3c(c2)C=CC(C)(C)O3)C(C)(C)C)cc1OC` [Compound 5d, N-tert-Butyl-N-(2,2-dimethyl-2H-chromen-6-ylmethyl)-3,4-dimethoxy-benzenesulfonamide], for which the pIC50 is 5.46. For the same compound, the pIC50 (Table 2) is 5.46.
As to `C=CCN(Cc1ccc2c(c1)C=CC(C)(C)O2)S(=O)(=O)c1ccc(OC)c(OC)c1` [Compound 5e, N-Allyl-N-(2,2-dimethyl-2H-chromen-6-ylmethyl)-3,4-dimethoxy-benzenesulfonamide], under “Table 2”, the negative-log IC50 (pIC50) was 5.47.
Regarding `COc1ccc(S(=O)(=O)N(CCC(C)C)Cc2ccc3c(c2)C=CC(C)(C)O3)cc1OC` [Compound 5f, N-(2,2-Dimethyl-2H-chromen-6-ylmethyl)-3,4-dimethoxy-N-(3-methyl-butyl)-benzenesulfonamide], the pIC50 (Table 2) is 5.80.
For the compound `COc1ccc(S(=O)(=O)N(Cc2ccc3c(c2)C=CC(C)(C)O3)C2CCCC2)cc1OC` [Compound 5g, N-Cyclopentyl-N-(2,2-dimethyl-2H-chromen-6-ylmethyl)-3,4-dimethoxy-benzenesulfonamide], the pIC50 is 5.80. Further, the negative-log IC50 (pIC50) (Table 2) is 6.30.

In general, pIC50 refers to the IC50 on a negative log10 scale, so that one unit is a factor of ten.

The values are drawn from patent US9062072B2, “Inhibitors of HIF and angiogenesis” (Emory University, priority 2010, dated 2015).
